# Data as given in patent US10189824B2, “Pyrimidine-diamine dual HSP90/TRAP1 inhibitors” (CalAsia Pharmaceuticals, Inc., priority 2014, dated 2019).
# Columns and labels:
# human Hsp90 = assay: Fluorescence polarization (FP) displacement assay, GA-FITC, Hsp90; assay type: binding; conditions: FP displacement of GA-FITC, 50 nM Hsp90; for Ki: read-out: Biochemical efficacy HSP90 Ki
# Method: (§1) Prior to transforming into BL21 (DE3) all the cloned vectors were sequence confirmed. Expressed proteins were purified using NTA resin (Life Technologies) followed by size exclusion chromatography using FPLC. The molecular mass of the purified proteins was confirmed by MALDI-TOF and assessed for purity by SDS-PAGE.
# (§2) The assay conditions were 20 mM HEPES, pH-7.5, 50 mM KCl, 5 mM MgCl2, 20 mM sodium molybdate, 2 mM DTT, 0.01% NP40, 100 ug/ml BSA, 50 nM Hsp90 or 200 nM TRAP1, 1% DMSO, and 8 nM (for Hsp90) or 20 nM (for TRAP1) GA-FITC in the presence of increasing concentrations of test compound.
# TRAP1 = target: T1, TRAP1 (Homo sapiens, UniProt Q12931); assay: Fluorescence polarization (FP) displacement assay, GA-FITC, TRAP1; assay type: binding; conditions: FP displacement of GA-FITC, 200 nM TRAP1; for Ki: NA: Not active, read-out: Biochemical efficacy TRAP1 Ki
# T1 construct: Recombinant full-length human Hsp90 and 459 TRAP1 were cloned; 6His (TEV-cleavable) (N); made in house; host or cells: E. coli BL21 (DE3)
# T1 sequence (Q12931 60-704): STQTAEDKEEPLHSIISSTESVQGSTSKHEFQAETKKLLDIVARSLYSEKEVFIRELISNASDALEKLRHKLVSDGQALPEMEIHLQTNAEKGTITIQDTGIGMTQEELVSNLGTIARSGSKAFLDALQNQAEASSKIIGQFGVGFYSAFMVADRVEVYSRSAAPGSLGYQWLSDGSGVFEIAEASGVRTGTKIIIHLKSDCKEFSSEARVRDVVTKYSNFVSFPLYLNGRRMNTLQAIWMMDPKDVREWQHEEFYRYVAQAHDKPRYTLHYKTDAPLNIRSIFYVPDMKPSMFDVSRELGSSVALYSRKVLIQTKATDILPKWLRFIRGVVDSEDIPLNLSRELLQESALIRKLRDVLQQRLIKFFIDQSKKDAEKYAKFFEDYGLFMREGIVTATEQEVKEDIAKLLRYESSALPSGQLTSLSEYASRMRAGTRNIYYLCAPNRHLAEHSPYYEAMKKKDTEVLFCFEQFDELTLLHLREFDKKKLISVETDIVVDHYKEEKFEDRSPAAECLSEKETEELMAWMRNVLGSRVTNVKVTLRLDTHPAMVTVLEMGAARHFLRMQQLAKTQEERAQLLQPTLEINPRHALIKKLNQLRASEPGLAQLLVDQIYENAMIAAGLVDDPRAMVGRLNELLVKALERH
# Method: as §1, §2
# [1] = tested on: caspase 3/7 activity in U251MG cells; assay: Caspase activation assay (Caspase-3/7 luminescence); assay type: cell-based; conditions: 48 h
# Method: U251MG cells were seeded, maintained, and treated with test compounds as described above for 48 h at 37° C. Quantification of total cellular Caspase-3 and 7 activity was accomplished using a Caspase-3/7 luminescence assay kit (Promega) according to the manufacturer's recommendations and analyzed with a POLARstar Omega micro-titer plate reader (BMG).
# U251MG cells = assay: TMRE assay, cell-based (mitochondrial membrane potential); conditions: for Decrease of specific TMRE fluorescence vs untreated: U251MG cells, 48 h
# Method: […] TMRE (200 nM) was then added to wells for 30 min and monitored for changes in fluorescence activity either by fluorescence microscopy using an inverted Zeiss LSM 710 confocal microscope or by spectrophotometry using a fluorescence plate reader (544ex/590em) after washing the cells. Specific TMRE fluorescence was calculated by comparison to matched wells pretreated with 20 uM FCCP for 10 min prior to addition of TMRE. For mitochondria assays, untreated U251MG cells grown to confluence in T75 culture flasks. Mitochondria from these cells were isolated using a mitochondria isolation kit (Thermo Scientific) and loaded with 0.1 mM TMRE in kit buffer at 37° C. for 20 min. After washing, the TMRE-loaded mitochondria (2 ug per well) were incubated in a 96 well black plate with test compounds and monitored kinetically at 30° C. for changes in fluorescence using a fluorescence plate reader (ex 544/em 590). The fluorescence intensity after treatment with 20 um FCCP in control wells corresponded to a fully depolarized state.
# Mitochondrial integrity was evaluated using Tetramethylrhodamine ethyl ester (TMRE) assay. A TMRE assay kit (Abcam) was used to evaluate Hsp90/TRAP1 inhibitor-induced changes in mitochondrial membrane potential. […] TMRE (200 nM) was then added to wells for 30 min and monitored for changes in fluorescence activity using a fluorescence plate reader (ex544/em 590) after washing the cells. Specific TMRE fluorescence was calculated by comparison to matched wells pretreated with the depolarizing proton ionophore carbonyl cyanide 4-(trifluoromethoxy)phenylhydrazone (FCCP) at 20 uM 10 min prior to addition of TMRE. For mitochondria assays, mitochondria was isolated using a kit from Thermoscientific and loaded with 0.1 mM TMRE. TMRE-loaded mitochondria (2 μg per well) were incubated with test compounds and monitored kinetically at 30° C. for changes in fluorescence using a flurorescence plate reader (ex 544/em 590) (FIGS. 6A, 9A and 12).
# [2] = tested on: mitochondria isolated from U251MG cells; assay: TMRE assay, TMRE-loaded isolated mitochondria; assay type: cell-based; conditions: 30° C.
# Method: For cell-based assays, cells were treated with various concentrations of the test compounds for 48 hours at 37° C., with 5% CO2. TMRE (200 nM) was then added to wells for 30 min and monitored for changes in fluorescence activity either by fluorescence microscopy using an inverted Zeiss LSM 710 confocal microscope or by spectrophotometry using a fluorescence plate reader (544ex/590em) after washing the cells. Specific TMRE fluorescence was calculated by comparison to matched wells pretreated with 20 uM FCCP for 10 min prior to addition of TMRE. For mitochondria assays, untreated U251MG cells grown to confluence in T75 culture flasks. Mitochondria from these cells were isolated using a mitochondria isolation kit (Thermo Scientific) and loaded with 0.1 mM TMRE in kit buffer at 37° C. for 20 min. After washing, the TMRE-loaded mitochondria (2 ug per well) were incubated in a 96 well black plate with test compounds and monitored kinetically at 30° C. for changes in fluorescence using a fluorescence plate reader (ex 544/em 590). The fluorescence intensity after treatment with 20 um FCCP in control wells corresponded to a fully depolarized state.
# GBM43 = assay: Cellular efficacy in Mayo Clinic GBM PDX cell line GBM43; assay type: cell-based
# Method: (§3) Short-term explant cultures from PDX models were seeded into 96-well Perfecta3D hanging drop plates to form a single spheroid in each well after 2 days. The spheroids were transferred to a round bottom 96 well plate by centrifugation and then incubated with graded concentrations of test compound (8 spheroids per compound concentration). Spheroid volumes were monitored every 6 hours over the course of 5 days using the IncuCyte system (Essen BioScience, MI, US) to provide a growth curve akin to a tumor regrowth assay.
# [3] = tested on: Mayo Clinic patient derived GBM tumor cells; assay: Mayo Clinic patient derived GBM tumor cell proliferation; assay type: cell-based; conditions: 132 hours
# Method: as §3
IC50 (human Hsp90; read-out: Biochemical efficacy HSP90 IC50),IC50 (TRAP1; read-out: Biochemical efficacy TRAP1 IC50),EC50 (GBM43),Structure (SMILES),Ki (human Hsp90),Ki (TRAP1),U251MG caspase 3/7 activity increase ([1]; 50 uM),Lowest concentration at which an increase in caspase activity was observed ([1]; U251MG),Decrease of specific TMRE fluorescence vs untreated (U251MG cells; 5 uM),Decrease of specific TMRE fluorescence vs untreated (U251MG cells; 50 uM),Membrane potential of isolated mitochondria reduced to ([2]; 4 uM),Membrane potential of isolated mitochondria reduced to ([2]; 20 uM),Effect on TMRE fluorescence of U251MG cells (U251MG cells; 2 hour or 4 hr),Effect on patient derived GBM tumor cell proliferation [3]
,,,"COc1c(C)cnc(CN(CCc2ccccn2)c2cc(Cl)nc(N)n2)c1C [Compound 1, 6-chloro-4-N-[(4-methoxy-3,5-dimethylpyridin-2yl)methyl]-4-N-[2-(pyridine-2-yl)ethyl]pyrimidine-2,4-amine]",0.0394 µM,0.0504 µM,6.8 fold,1.6 µM,42%,73%,61%,52%,,
0.044 µM,0.312 µM,0.28 µM,"COc1c(C)cnc(CN(CC2(c3ccc(F)cc3)CCOCC2)c2cc(Cl)nc(N)n2)c1C [Compound A, 6-chloro-4-N-{[4-(4-fluorophenyl)oxan-4-yl]methyl}-4-N-[(4-methoxy-3,5-dimethylpyridin-2-yl)methyl]pyrimidine-2,4-diamine]",0.011 µM,0.039 µM,,,,,,,dose-dependent decrease,inhibit
